Assay results reported in PMC9144402, “An Octopus-Derived Peptide with Antidiuretic Activity in Rats” (Marine Drugs, 2022).
One block for each molecule: values may come before it. Positions of bridges follow the written chain, without caps; N, C: chain ends. Residues, ends and D or L forms follow the SMILES beside them. No end group written: not given here.

Key:
human OXTR [1] = target: T1, human OXTR (Homo sapiens, UniProt P30559); assay: OXTR functional assay, agonist effect (intracellular Ca^2+ increase, fluorimetry, transfected ECV304 cells); assay type: cell-based; settings: up to 50 μM, RT, % of control response (1 µM OXT), triplicate
T1 construct: host or cells: ECV304
T1 sequence (P30559 1-389): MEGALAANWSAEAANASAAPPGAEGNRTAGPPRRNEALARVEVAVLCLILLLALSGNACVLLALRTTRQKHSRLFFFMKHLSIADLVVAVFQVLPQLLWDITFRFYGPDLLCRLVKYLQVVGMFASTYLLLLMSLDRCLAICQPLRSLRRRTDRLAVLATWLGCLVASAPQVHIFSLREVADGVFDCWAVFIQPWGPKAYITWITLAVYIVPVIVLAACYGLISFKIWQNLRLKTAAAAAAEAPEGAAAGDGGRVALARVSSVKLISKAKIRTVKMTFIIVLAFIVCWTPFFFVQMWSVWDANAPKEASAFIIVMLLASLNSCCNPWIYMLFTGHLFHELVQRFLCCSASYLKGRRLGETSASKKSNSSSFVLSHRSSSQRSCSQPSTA
Protocol: (§1) Detailed information about the cells tested and other experimental conditions are described in Table 2. Briefly, cells were transfected with a recombinant expression vector capable of expressing each type of human OXT/AVP receptor. To evaluate the agonist effects on OXTR, V1aR, and V1bR, the intracellular Ca^2+ increase after treatment with OTP or CPT was measured by fluorimetry. […] For V2R receptors, cells were treated with peptides with or without the stimulant for 30 min. After that, cyclic AMP (cAMP) concentrations were measured by homogeneous time-resolved fluorescence (HTRF). The results were represented as the percent submaximal response achieved by the stimulant. All experiments were performed in triplicate. Data are presented as the mean ± standard error of the mean. The 50% effective concentration (EC50) and 50% inhibitory concentration (IC50) values were determined using a 4-parameter logistic fitting of a dose–response curve using SigmaPlot 10.0 (Systat Software, Palo Alto, CA, USA).

human OXTR [2] = target: T1, human OXTR; assay: OXTR functional assay, antagonist effect (30 nM OXT-induced intracellular Ca^2+, fluorimetry, ECV304 cells); assay type: cell-based
Protocol: as §1

human V1aR [3] = target: T2, human V1aR (Homo sapiens, UniProt P37288); assay: V1aR functional assay, agonist effect (intracellular Ca^2+ increase, fluorimetry, CHO cells); assay type: cell-based; settings: up to 50 μM, RT, % of control response (1 µM AVP), triplicate
T2 construct: host or cells: CHO
T2 sequence (P37288 whole entry): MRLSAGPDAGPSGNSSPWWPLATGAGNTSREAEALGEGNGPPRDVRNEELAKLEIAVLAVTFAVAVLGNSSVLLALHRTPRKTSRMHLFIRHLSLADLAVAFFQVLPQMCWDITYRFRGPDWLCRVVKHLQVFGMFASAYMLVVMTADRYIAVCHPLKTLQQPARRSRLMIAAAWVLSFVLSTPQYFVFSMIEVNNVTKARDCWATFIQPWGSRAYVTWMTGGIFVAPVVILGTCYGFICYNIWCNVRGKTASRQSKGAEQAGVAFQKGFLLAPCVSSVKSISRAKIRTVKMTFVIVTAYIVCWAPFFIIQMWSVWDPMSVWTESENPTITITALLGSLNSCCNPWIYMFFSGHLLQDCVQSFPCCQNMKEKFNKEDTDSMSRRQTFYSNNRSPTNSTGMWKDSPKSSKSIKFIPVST
Protocol: as §1

human V1aR [4] = target: T2, human V1aR; assay: V1aR functional assay, antagonist effect (10 nM AVP-induced intracellular Ca^2+, fluorimetry, CHO cells); assay type: cell-based
Protocol: as §1

human V1bR = target: T3, human V1bR (Homo sapiens, UniProt P47901); assay: V1bR functional assay, agonist effect (intracellular Ca^2+ increase, fluorimetry, RBL cells); assay type: cell-based
T3 construct: host or cells: RBL
T3 sequence (P47901 1-424): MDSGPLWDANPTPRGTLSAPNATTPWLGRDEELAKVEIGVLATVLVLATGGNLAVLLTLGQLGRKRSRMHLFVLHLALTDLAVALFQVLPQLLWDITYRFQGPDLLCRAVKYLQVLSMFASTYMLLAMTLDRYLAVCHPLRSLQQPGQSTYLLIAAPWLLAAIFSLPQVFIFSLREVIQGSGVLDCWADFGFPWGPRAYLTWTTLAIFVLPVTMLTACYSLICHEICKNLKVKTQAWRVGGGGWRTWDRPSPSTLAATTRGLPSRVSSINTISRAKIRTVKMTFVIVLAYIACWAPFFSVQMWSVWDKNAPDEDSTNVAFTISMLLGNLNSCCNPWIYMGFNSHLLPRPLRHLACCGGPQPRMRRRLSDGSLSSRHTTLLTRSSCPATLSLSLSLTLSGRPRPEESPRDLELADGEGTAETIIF
Protocol: as §1

human V2R = target: T4, human V2R (Homo sapiens, UniProt P30518); assay: V2R functional assay, agonist effect (cAMP accumulation, HTRF, CHO cells); assay type: cell-based
T4 construct: host or cells: CHO
Protocol: as §1

[5] = tested on: HEK293T human kidney cells; assay: CCK-8 cell viability assay and morphology, HEK293T; assay type: cell-based; settings: for viable HEK293T cells: 0.1–50 μM
Protocol: Human kidney HEK293T cells were obtained from the American Type Culture Collection (ATCC, Manassas, VA, USA). The 293T cells were grown in DMEM supplemented with 10% fetal bovine serum (HyClone, Logan, UT, USA) and penicillin–streptomycin. Cells were incubated at 37 °C in a humidified atmosphere with 95% air/5% CO2. HEK293T cells (5 × 10^3) were incubated in 96-well plates to measure cell viability using a Cell Counting Kit-8 (CCK-8; Dojindo Laboratories, Kumamoto, Japan). After overnight incubation, the medium was changed to fresh medium containing CPT at doses of 50~0.1 μM in three wells each. Then, the cells were incubated for 24, 48, or 72 h and photographed under a phase-contrast microscope. We added 100 μL of fresh medium and 10 μL of CCK-8 solution to each well. After incubation for 3 h at 37 °C, the optical density (OD) at 450 nm was measured using a Spectramax i3x instrument (Molecular Devices, San Jose, CA, USA). The cell viability was calculated as follows: cell viability (%) = (OD (experiment) − OD (blank))/(OD (control) − OD (blank)) × 100%

Sprague-Dawley (SD) rats [6] = assay: Death and signs of toxicity after intravenous injection in SD rats; assay type: in vivo, rat; settings: for death or signs of toxicity: injection, 'the same doses' (AVP: data not shown)
V1aR [7] = settings: ref [17]; cited from earlier work
Sprague-Dawley (SD) rats [8] = assay: Antidiuretic experiment in SD rats (single tail intravenous injection, metabolic cage); assay type: in vivo, rat
rat V1bR = tested on: rat V1bR; set-up: method as in PMID 9264324; settings: ref [8]; cited from earlier work
rat V2R = tested on: rat V2R; set-up: method as in PMID 9264324; settings: ref [8]; cited from earlier work
[9] = administered intravenously; no reference printed ('generally known'); cited from earlier work
[10] = treatment of nocturia, enuresis, and diabetes insipidus; ref [26]; cited from earlier work
Description: (§2) Currently, desmopressin is the antidiuretic drug of choice for the treatment of excessive and/or uncontrolled urination. […] Although desmopressin is generally considered safe and efficacious in the treatment o ...

V1aR [11] = settings: no reference given; cited from earlier work
Description: as §2

[12] = target: T5, human AVP type 1b receptor (human) (UniProt P47901)
T5 sequence: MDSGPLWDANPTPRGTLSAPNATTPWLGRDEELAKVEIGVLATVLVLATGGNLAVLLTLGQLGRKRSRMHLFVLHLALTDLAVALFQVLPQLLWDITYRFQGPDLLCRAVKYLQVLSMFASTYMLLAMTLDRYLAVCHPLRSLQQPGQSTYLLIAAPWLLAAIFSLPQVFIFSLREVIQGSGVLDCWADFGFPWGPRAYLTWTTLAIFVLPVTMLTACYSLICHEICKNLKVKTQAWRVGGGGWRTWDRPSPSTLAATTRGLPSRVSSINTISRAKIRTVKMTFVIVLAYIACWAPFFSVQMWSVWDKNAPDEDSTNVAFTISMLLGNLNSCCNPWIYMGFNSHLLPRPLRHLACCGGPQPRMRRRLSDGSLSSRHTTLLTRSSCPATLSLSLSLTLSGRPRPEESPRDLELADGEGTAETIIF

[13] = target: human AVP type 2 receptor (human) (UniProt P30518)
[14] = target: human oxytocin receptor (human) (UniProt P30559)
[15] = target: human vasopressin receptor V1aR (human) (UniProt P37288)
Sequence of human vasopressin receptor V1aR (human) (P37288 whole entry): as the sequence (P37288 whole entry) above

[16] = target: human AVP type 2 receptor (human) (UniProt P30518); remark: listed apart in the source
[17] = target: human oxytocin receptor (human) (UniProt P30559); remark: listed apart in the source
[18] = nanomolar level of CPT (Figure 2E, 36.55 nM), calculated by curve-fitting
[19] = 24 h after treatment, CCK-8, triplicate
[20] = 48 h after treatment, CCK-8, triplicate

Molecule: CC[C@H](C)[C@H](NC(=O)[C@@H]1CCCN1C(=O)[C@@H]1CSSC[C@H](N)C(=O)N[C@@H](Cc2ccc(O)cc2)C(=O)N[C@@H](Cc2ccccc2)C(=O)N[C@@H](CCCNC(=N)N)C(=O)N[C@@H](CC(N)=O)C(=O)N1)C(=O)NCC(N)=O [CPT, cephalotocin] (H-CYFRNCPIG-NH2; disulfide 1-6)
OXTR-mediated intracellular Ca^2+ increase (agonist effect) (human OXTR [1]): not activated | IC50 (human OXTR [2]; ECV304, stimulant 30 nM OXT, RT, fluorimetry, 4-parameter logistic fitting, triplicate): > 50 µM | expected effect on OXTR, nanomolar level (human OXTR [2]; [18]): < 20% | V1aR-mediated intracellular Ca^2+ increase (agonist effect) (human V1aR [3]): not activated | IC50 (human V1aR [4]): 1230 nM | inhibition at 1.65 µM (human V1aR [4]; CHO, micromolar level (Figure 2F, 1.65 μM), calculated by curve-fitting, read-out: expected V1aR inhibition, micromolar level): ≥ 50% | expected effect on V1aR, nanomolar level (human V1aR [4]; [18]): < 20% | EC50 (human V1bR; RBL, intracellular Ca^2+, fluorimetry, RT, 4-parameter logistic fitting, triplicate): 10 nM | expected V1bR activation, nanomolar level (human V1bR; [18]): ~ 80% | EC50 (human V2R; CHO, cAMP, HTRF, 30 min RT, 4-parameter logistic fitting, triplicate): 12.1 nM | expected V2R activation, nanomolar level (human V2R; [18]): ~ 80% | cell morphology [5]: unchanged | viable HEK293T cells [5, 19]: Over 98% | viable HEK293T cells [5, 20]: Over 98% | death or signs of toxicity (Sprague-Dawley (SD) rats [6]): did not cause any death or signs of toxicity | lethality (Sprague-Dawley (SD) rats [6]; single intravenous injection (1 mg/mL/kg)): did not kill the experimental animals

Molecule: inotocin
V1aR activity (in words) (V1aR [7]): selective antagonists of V1aR

Molecule: NC(=O)CC[C@@H]1NC(=O)[C@H](Cc2ccccc2)NC(=O)[C@H](Cc2ccc(O)cc2)NC(=O)[C@@H](N)CSSC[C@@H](C(=O)N2CCC[C@H]2C(=O)N[C@@H](CCCN=C(N)N)C(=O)NCC(N)=O)NC(=O)[C@H](CC(N)=O)NC1=O [AVP, arginine vasopressin]
antidiuretic effect (in words) (Sprague-Dawley (SD) rats [8]; SD rats, 0.001 mg/mL/kg micro intravenous tail administration): shows an antidiuretic effect | viable HEK293T cells [5, 19]: Over 98% | viable HEK293T cells [5, 20]: Over 98% | viability compared to PBS control (in words) ([5]; 72 h, 0.1–10 μM, CCK-8, triplicate): slightly increase the viability | lethality (Sprague-Dawley (SD) rats [6]; 0.001 mg/mL/kg micro intravenous tail administration): occasionally lethal | death or signs of toxicity (Sprague-Dawley (SD) rats [6]): occasionally caused death | EC50 (rat V1bR): 1.31 nM | EC50 (rat V2R): 43.5 nM | half-life [9]: several minutes

Molecule: Mpr-YFQNCP(D-Arg)G-NH2 (disulfide bond) (disulfide) [Desmopressin, 1-deamino-8-D-arginine vasopressin, positive control]
osmolarity (in words) (Sprague-Dawley (SD) rats [8]; male rats under 200 g, single microvenous injection, n=6 for each group): no change | death or signs of toxicity (Sprague-Dawley (SD) rats [6]): did not cause any death or signs of toxicity | half-life [9]: several hours | serious adverse effect [10]: hyponatremia | V1aR-mediated pressor activity (V1aR [11]): low

EC50 of V1bR-mediated intracellular Ca^2+ release (agonist effect) in RBL cells expressing human V1bR, fluorimetry [12]: 10 nM | EC50 of V2R-mediated cAMP accumulation (agonist effect) in CHO cells expressing human V2R, HTRF [13]: 12.1 nM | IC50 of the antagonist effect on intracellular Ca^2+ release induced by 30 nM OXT in ECV304 cells expressing human OXTR (pair blocked: OXT and OXTR) [14]: > 50 µM | IC50 of the antagonist effect on intracellular Ca^2+ release induced by 10 nM AVP in CHO cells expressing human V1aR (pair blocked: AVP and V1aR) [15]: 1.23 µM
B1: Cephalotocin (peptide)
peptide: CYFRNCPIG-NH2
modifications: disulfide 1-6; N-terminus assumed
SMILES: CC[C@H](C)[C@H](NC(=O)[C@@H]1CCCN1C(=O)[C@@H]1CSSC[C@H](N)C(=O)N[C@@H](Cc2ccc(O)cc2)C(=O)N[C@@H](Cc2ccccc2)C(=O)N[C@@H](CCCNC(=N)N)C(=O)N[C@@H](CC(N)=O)C(=O)N1)C(=O)NCC(N)=O

V2R-mediated cAMP accumulation (agonist effect) in CHO cells expressing human V2R, percent of the control response at 50 μM OTP [16]: < 30% | antagonist effect on intracellular Ca^2+ release induced by 30 nM OXT in ECV304 cells expressing human OXTR (pair blocked: OXT and OXTR), inhibition rate at 50 μM OTP [17]: 30%
B2: Octopressin (peptide)
peptide: CYWTSCPIG-NH2
modifications: disulfide 1-6; N-terminus assumed
SMILES: CC[C@H](C)[C@H](NC(=O)[C@@H]1CCCN1C(=O)[C@@H]1CSSC[C@H](N)C(=O)N[C@@H](Cc2ccc(O)cc2)C(=O)N[C@@H](Cc2c[nH]c3ccccc23)C(=O)N[C@@H]([C@@H](C)O)C(=O)N[C@@H](CO)C(=O)N1)C(=O)NCC(N)=O
